Measured values from US20230041996A1, “CALCIUM-SENSING RECEPTOR AGONIST COMPOUND AND APPLICATION THEREOF” (BEIJING TUO JIE BIOPHARMACEUTICAL CO. LTD., priority 2019, published 2023).
Square brackets hold non-standard residues; d marks the D form. Peptide text beside a SMILES is read from it. * marks the point of attachment. Cys(free,S-linked) = N[C@@H](CS*)C(=O)O; d(hPhe) = N[C@H](CCc1ccccc1)C(=O)O; d(hLeu) = CC(C)CC[C@@H](N)C(=O)O; dChg = N[C@@H](C(=O)O)C1CCCCC1; dPhg = N[C@@H](C(=O)O)c1ccccc1; dAbu = CC[C@@H](N)C(=O)O

Assays:
[1] = tested on: rat peritoneal mast cells; assay: In vitro histamine release in rat peritoneal mast cells (histamine ELISA); assay type: cell-based; conditions: for Relative fold of histamine release in vitro: test compound final concentration 10 μM, 15 min at 37° C., relative to PBS buffer (1.00)
Description: To evaluate the in vitro histamine release levels induced by some of the test example compounds, rat peritoneal mast cells were collected by lavaging rat peritoneum with a lavage buffer (cold HBSS+25 mM HEPES containing heparin 5 U/mL, pH 7.4). After collection, the cells were centrifuged, and the lavage buffer was discarded. The cells were resuspended and washed twice with a stimulation buffer (HBSS+25 mM HEPES+1 mM CaCl2), pH 7.4). The cells were plated at a density of 10^5 cell/well (200 μL/well) and incubated at 37° C. for 15 min with positive control compound 48/80 (final concentration: 4 μg/mL), test example compounds (final concentration: 10 μM) or vehicle control. The cells were centrifuged, and cell supernatant was collected and tested for histamine concentration according to LDN Histamine ELISA kit (BAE-1000) instructions.

[2] = biological target: T1, human calcium-sensing receptor (CaSR) (Homo sapiens, UniProt P41180); assay: Agonist activity on human calcium-sensing receptor (IP-One HTRF in stably transfected HEK293/CaSR cells); assay type: cell-based; conditions: HEK293/CaSR cells, IP-One production, 60 min at 37° C., CaCl2 1.2 mM; read-out: EC50 for calcium-sensing receptor
T1 construct: host or cells: HEK293
T1 sequence (P41180 20-1078): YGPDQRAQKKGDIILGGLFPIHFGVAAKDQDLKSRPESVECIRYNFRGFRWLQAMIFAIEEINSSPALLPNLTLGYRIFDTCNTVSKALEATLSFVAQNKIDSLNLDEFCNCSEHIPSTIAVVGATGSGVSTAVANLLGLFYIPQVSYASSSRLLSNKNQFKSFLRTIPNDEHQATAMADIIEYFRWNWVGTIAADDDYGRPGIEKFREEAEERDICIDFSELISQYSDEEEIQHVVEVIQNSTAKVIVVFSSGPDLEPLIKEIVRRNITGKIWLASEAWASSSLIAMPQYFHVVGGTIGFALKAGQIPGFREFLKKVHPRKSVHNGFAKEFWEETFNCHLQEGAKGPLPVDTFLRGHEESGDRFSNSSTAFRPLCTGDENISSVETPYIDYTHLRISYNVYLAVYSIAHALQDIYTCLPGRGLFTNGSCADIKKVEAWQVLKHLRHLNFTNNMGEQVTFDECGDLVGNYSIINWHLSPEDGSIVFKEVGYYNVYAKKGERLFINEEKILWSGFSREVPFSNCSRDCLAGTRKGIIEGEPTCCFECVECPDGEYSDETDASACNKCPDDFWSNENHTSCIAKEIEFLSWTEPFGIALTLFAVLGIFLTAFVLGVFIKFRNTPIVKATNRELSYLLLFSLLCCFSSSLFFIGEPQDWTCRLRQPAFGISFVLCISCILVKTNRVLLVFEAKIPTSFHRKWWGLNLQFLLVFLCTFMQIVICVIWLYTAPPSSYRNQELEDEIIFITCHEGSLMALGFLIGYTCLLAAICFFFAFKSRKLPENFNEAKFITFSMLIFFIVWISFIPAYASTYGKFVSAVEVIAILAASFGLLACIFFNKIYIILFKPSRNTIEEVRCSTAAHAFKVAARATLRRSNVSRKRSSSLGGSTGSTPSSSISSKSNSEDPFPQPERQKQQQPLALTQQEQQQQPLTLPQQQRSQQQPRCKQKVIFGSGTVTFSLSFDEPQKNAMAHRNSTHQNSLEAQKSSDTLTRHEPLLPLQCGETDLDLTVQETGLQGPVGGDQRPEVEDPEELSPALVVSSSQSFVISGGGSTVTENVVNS
Description: 3.1.1 Objective: The test example is intended to measure the agonist activity of compounds 1-38 on the human calcium-sensing receptor (CaSR).
Stably transfected HEK293/CaSR cells (source: Pharmaron) were cultured in a complete medium (composition: DMEM, high glucose+10% FBS+2 mM GlutaMAX+1× Penicillin-Streptomycin+200 μg/mL Hygromycin B) and incubated at 37° C./5% CO2 till 70%-90% cell confluence. The cells were digested with TrypLE, inoculated into 384-well cell culture plates, and cultured overnight at 37° C./5% CO2. After buffer exchange, stimulation buffer (HEPES 10 mM, MgCl2 0.5 mM, KCl 4.2 mM, NaCl 146 mM, glucose 5.5 mM, LiCl 50 mM, CaCl2 1.2 mM) and various concentrations of the test example compounds were added and incubated at 37° C. for 60 min. Production of IP-One in cells was detected according to the procedures in the Cisbio IP-One Tb kit instructions. The EC50 values of various test example compounds in influencing human calcium-sensing receptor was calculated by software after the raw data of the example compounds were collected, so as to evaluate the agonist activity of the example compounds on human calcium-sensing receptor.
HTRF signal was read by an EnVision detector with an excitation wavelength of 320 nm and emission wavelengths of 620 nm and 665 nm. The signal ratio (665 nm/620 nm×10,000) was calculated and fitted non-linearly to the sample concentration in GraphPad Prism 6 using a four-parameter equation to give EC50 values of the test example compounds 1-38.

Structure (SMILES)	Relative fold of histamine release in vitro [1]	EC50 [2] [µM]	histamine release levels in rat peritoneal mast cells in vitro relative to etelcalcetide ([1]; 10 μM, comparison with etelcalcetide)
CC(=O)N[C@H](CSSC[C@H](N)C(=O)O)C(=O)N[C@H](CO)C(=O)N[C@H](CCCNC(=N)N)C(=O)N[C@H](CCCNC(=N)N)C(=O)N[C@H](CCCNC(=N)N)C(=O)NCC(=O)N[C@H](CCCNC(=N)N)C(N)=O [Compound 8, Ac-c(C)-s-r-r-r-G-r-NH2] (Ac-[dC](Cys(free,S-linked))[dS][dR][dR][dR]G[dR]-NH2)	1.50	14.3	
CC(=O)N[C@H](CSSC[C@H](N)C(=O)O)C(=O)N[C@H](CCCNC(=N)N)C(=O)N[C@H](CCCNC(=N)N)C(=O)N[C@H](CCC(C)C)C(=O)N[C@H](CCCNC(=N)N)C(=O)N[C@H](CO)C(=O)N[C@H](CCCNC(=N)N)C(N)=O [Compound 33, Ac-c(C)-r-r-(D-hLeu)-r-s-r-NH2] (Ac-[dC](Cys(free,S-linked))[dR][dR][d(hLeu)][dR][dS][dR]-NH2)	2.50	5.03	
CC(=O)N[C@H](CSSC[C@H](N)C(=O)O)C(=O)N[C@H](Cc1c[nH]c2ccccc12)C(=O)N[C@H](CCCNC(=N)N)C(=O)N[C@H](CCCNC(=N)N)C(=O)N[C@H](CCCNC(=N)N)C(=O)N[C@H](C)C(=O)N[C@H](CCCNC(=N)N)C(N)=O [Compound 5, Ac-c(C)-(D-Trp)-r-r-r-a-r-NH2] (Ac-[dC](Cys(free,S-linked))[dW][dR][dR][dR][dA][dR]-NH2)	4.13	1.14	
CC(=O)N[C@H](CSSC[C@H](N)C(=O)O)C(=O)N[C@H](Cc1c[nH]cn1)C(=O)N[C@H](CCCNC(=N)N)C(=O)N[C@H](CCCNC(=N)N)C(=O)N[C@H](CCCNC(=N)N)C(=O)N[C@H](CO)C(=O)N[C@H](CCCNC(=N)N)C(N)=O [Compound 10, Ac-c(C)-h-r-r-r-s-r-NH2] (Ac-[dC](Cys(free,S-linked))[dH][dR][dR][dR][dS][dR]-NH2)	3.66	3.52	
CC(=O)N[C@H](CSSC[C@H](N)C(=O)O)C(=O)N[C@@H](C(=O)N[C@H](CCCNC(=N)N)C(=O)N[C@H](CCCNC(=N)N)C(=O)N[C@H](CCCNC(=N)N)C(=O)N[C@H](C)C(=O)N[C@H](CCCNC(=N)N)C(N)=O)c1ccccc1 [Compound 1, Ac-c(C)-(D-Phg)-r-r-r-a-r-NH2] (Ac-[dC](Cys(free,S-linked))[dPhg][dR][dR][dR][dA][dR]-NH2)	1.50	15.7	
CC(=O)N[C@H](CSSC[C@H](N)C(=O)O)C(=O)N[C@H](CCCNC(=N)N)C(=O)N[C@H](CCCNC(=N)N)C(=O)N[C@@H](C(=O)N[C@H](CCCNC(=N)N)C(=O)NCC(=O)N[C@H](CCCNC(=N)N)C(N)=O)C(C)C [Compound 30, Ac-c(C)-r-r-v-r-G-r-NH2] (Ac-[dC](Cys(free,S-linked))[dR][dR][dV][dR]G[dR]-NH2)	1.51	19.6	
CC(=O)N[C@H](CSSC[C@H](N)C(=O)O)C(=O)N[C@H](CCCNC(=N)N)C(=O)N[C@H](CCCNC(=N)N)C(=O)N[C@@H](C(=O)N[C@H](CCCNC(=N)N)C(=O)N[C@H](C)C(=O)N[C@H](CCCNC(=N)N)C(N)=O)C1CCCCC1 [Compound 20, Ac-c(C)-r-r-(D-Chg)-r-a-r-NH2] (Ac-[dC](Cys(free,S-linked))[dR][dR][dChg][dR][dA][dR]-NH2)	2.33	7.53	
CC[C@@H](NC(=O)[C@@H](CCCNC(=N)N)NC(=O)[C@@H](CCCNC(=N)N)NC(=O)[C@@H](CSSC[C@H](N)C(=O)O)NC(C)=O)C(=O)N[C@H](CCCNC(=N)N)C(=O)NCC(=O)N[C@H](CCCNC(=N)N)C(N)=O [Compound 32, Ac-c(C)-r-r-(D-Abu)-r-G-r-NH2] (Ac-[dC](Cys(free,S-linked))[dR][dR][dAbu][dR]G[dR]-NH2)	1.41	13.1	reduction in histamine release levels
CC(=O)N[C@H](CSSC[C@H](N)C(=O)O)C(=O)N[C@H](CCCNC(=N)N)C(=O)N[C@H](CCCNC(=N)N)C(=O)N[C@H](CCc1ccccc1)C(=O)N[C@H](CCCNC(=N)N)C(=O)N[C@H](C)C(=O)N[C@H](CCCNC(=N)N)C(N)=O [Compound 16, Ac-c(C)-r-r-(D-hPhe)-r-a-r-NH2] (Ac-[dC](Cys(free,S-linked))[dR][dR][d(hPhe)][dR][dA][dR]-NH2)	2.94	2.37	
CC(=O)N[C@H](CSSC[C@H](N)C(=O)O)C(=O)N[C@H](CCCNC(=N)N)C(=O)N[C@H](CCCNC(=N)N)C(=O)N[C@H](Cc1ccc(O)cc1)C(=O)N[C@H](CCCNC(=N)N)C(=O)N[C@H](C)C(=O)N[C@H](CCCNC(=N)N)C(N)=O [Compound 24, Ac-c(C)-r-r-y-r-a-r-NH2] (Ac-[dC](Cys(free,S-linked))[dR][dR][dY][dR][dA][dR]-NH2)	3.18	2.03	
CC(=O)N[C@H](CSSC[C@H](N)C(=O)O)C(=O)N[C@H](CO)C(=O)N[C@H](CCCNC(=N)N)C(=O)N[C@H](CCCNC(=N)N)C(=O)N[C@H](CCCNC(=N)N)C(=O)N[C@H](CO)C(=O)N[C@H](CCCNC(=N)N)C(N)=O [Compound 6, Ac-c(C)-s-r-r-r-s-r-NH2] (Ac-[dC](Cys(free,S-linked))[dS][dR][dR][dR][dS][dR]-NH2)	1.65	11.6	
CC(=O)N[C@H](CSSC[C@H](N)C(=O)O)C(=O)N[C@H](CCCNC(=N)N)C(=O)N[C@H](CCCNC(=N)N)C(=O)N[C@@H](C(=O)N[C@H](CCCNC(=N)N)C(=O)N[C@H](CO)C(=O)N[C@H](CCCNC(=N)N)C(N)=O)C1CCCCC1 [Compound 35, Ac-c(C)-r-r-(D-Chg)-r-s-r-NH2] (Ac-[dC](Cys(free,S-linked))[dR][dR][dChg][dR][dS][dR]-NH2)	2.06	12.9	
CC(=O)N[C@H](CSSC[C@H](N)C(=O)O)C(=O)N[C@H](Cc1ccc(O)cc1)C(=O)N[C@H](CCCNC(=N)N)C(=O)N[C@H](CCCNC(=N)N)C(=O)N[C@H](CCCNC(=N)N)C(=O)N[C@H](C)C(=O)N[C@H](CCCNC(=N)N)C(N)=O [Compound 4, Ac-c(C)-(D-Tyr)-r-r-r-a-r-NH2] (Ac-[dC](Cys(free,S-linked))[dY][dR][dR][dR][dA][dR]-NH2)	3.94	6.92	
CC(=O)N[C@H](CSSC[C@H](N)C(=O)O)C(=O)N[C@H](CCCNC(=N)N)C(=O)N[C@H](CCCNC(=N)N)C(=O)N[C@H](CO)C(=O)N[C@H](CCCNC(=N)N)C(=O)NCC(=O)N[C@H](CCCNC(=N)N)C(N)=O [Compound 22, Ac-c(C)-r-r-s-r-G-r-NH2] (Ac-[dC](Cys(free,S-linked))[dR][dR][dS][dR]G[dR]-NH2)	1.63	15.4	
